Our source for the GI50 and TGI values is PubChem BioAssay (NCI).

Each structure is given as a SMILES string.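 Values below derive from 48-hour exposures of cells grown in 96-well plates, with endpoints linearly interpolated between the two concentrations bracketing the appropriate inhibition level. GI50 is the concentration that inhibits growth by half. TGI is the concentration that stops growth completely.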

Some test systems named below: EKVX NSCLC; SN12C renal; IGROV1 ovarian; 786-0 renal; SNB-19 CNS; SF-295 CNS; A549 NSCLC; NCI-H226 lung; ACHN renal; NCI-H23 lung.
Holding throughout (assay): NCI tumour cell line growth inhibition, 48 h

With `CN1CCN(CCCOc2cccc3nc(Nc4ccc(F)c(F)c4)ccc23)CC1`, the GI50 in the test with EKVX NSCLC is 4.83 µM; in the test on SN12C renal it was 4.87 µM; with IGROV1 ovarian, 5.55 µM; in the test on 786-0 renal it was 4.66 µM; with SNB-19 CNS, 4.89 µM; in the test on SF-295 CNS, 4.64 µM. Also, the GI50 was 3.5 µM in the test on A549 NSCLC, 5.51 µM with NCI-H226 lung, 4.57 µM in the test on ACHN renal and 4.67 µM in the test on NCI-H23 lung. For the same compound, the TGI is 9.41 µM with EKVX NSCLC; 9.93 µM in the test on SN12C renal; 11.4 µM in the test on IGROV1 ovarian; 9.25 µM in the test on 786-0 renal; 10.2 µM in the test with SNB-19 CNS; 9.3 µM in the test on SF-295 CNS. For the same compound, the TGI came out at 8.15 µM in the test on A549 NSCLC, 11.1 µM in the test on NCI-H226 lung, 9.17 µM in the test with ACHN renal and 9.29 µM in the test on NCI-H23 lung.

Consider `O=c1c2cccnc2ncn1CCCN1CCCC1`, for which the TGI with EKVX NSCLC, in the test on SN12C renal, in the test with IGROV1 ovarian, in the test with 786-0 renal, with SNB-19 CNS and in the test on SF-295 CNS was above 100 µM in each case. Moreover, the TGI in the test on A549 NSCLC, with NCI-H226 lung, with ACHN renal and in the test with NCI-H23 lung was above 100 µM each time.

For the compound `Nc1ccccc1C(=O)NC(=O)Nc1ccc(Oc2ncc(Br)cn2)c(Cl)c1`, the GI50 in the test with EKVX NSCLC is 0.0198 µM. Besides, the TGI in the test on EKVX NSCLC was 29.6 µM; in the test with SN12C renal it was 17.4 µM; in the test on IGROV1 ovarian, 7.83 µM; in the test on 786-0 renal, 3.58 µM; in the test with SNB-19 CNS, 14.7 µM; in the test with SF-295 CNS, 0.127 µM. Besides, the TGI stood at 13.4 µM in the test on A549 NSCLC, 1.49 µM in the test on NCI-H226 lung, 30.8 µM in the test on ACHN renal and 4.86 µM in the test on NCI-H23 lung.

`N#C/C(=C\c1ccccc1)C(NO)Nc1ccccc1` (stereo not given): the TGI in the test with EKVX NSCLC, in the test on SN12C renal, in the test on IGROV1 ovarian, in the test with 786-0 renal, in the test on SNB-19 CNS and in the test with SF-295 CNS was above 100 µM in each case. Also, the TGI with A549 NSCLC, in the test on NCI-H226 lung, in the test with ACHN renal and with NCI-H23 lung was above 100 µM throughout.

On to `CCn1c(CSc2nc(-c3ccccc3)c(-c3ccccc3)[nH]2)n[nH]c1=S`, for which the TGI with EKVX NSCLC, with SN12C renal, in the test on IGROV1 ovarian, with 786-0 renal, in the test with SNB-19 CNS and with SF-295 CNS was above 100 µM each time. Further, the TGI with A549 NSCLC, with NCI-H226 lung, with ACHN renal and with NCI-H23 lung was above 100 µM throughout.

Consider `Cc1ccc(C2C(Cl)C(=O)N2NC(=O)c2ccc(N)cc2)cc1` (stereo not given), for which the TGI in the test on EKVX NSCLC came to 49.7 µM; in the test on SN12C renal, 52.2 µM; in the test with IGROV1 ovarian, 25.2 µM; in the test on 786-0 renal, 37.8 µM; in the test with SNB-19 CNS, 33.5 µM; with SF-295 CNS, 47.8 µM. In addition, the TGI in the test on A549 NSCLC is 71.7 µM; in the test on NCI-H226 lung it was 65.4 µM; in the test with ACHN renal it was above 100 µM; with NCI-H23 lung it was 38.3 µM.

With `COc1cc(CN(c2ccc(C)cc2)C2OC(=O)c3ccccc32)cc(OC)c1OC` (stereo not given), the GI50 with EKVX NSCLC is 0.647 µM; in the test with SN12C renal it was 0.854 µM; in the test on IGROV1 ovarian, 1.29 µM; in the test on 786-0 renal, 0.691 µM; in the test with SNB-19 CNS, 0.689 µM; in the test with SF-295 CNS it was 0.322 µM. Moreover, the GI50 was 0.584 µM with A549 NSCLC, 0.507 µM in the test with NCI-H226 lung, 3.21 µM in the test with ACHN renal and 0.427 µM with NCI-H23 lung. Also, the TGI in the test on EKVX NSCLC, in the test on SN12C renal, in the test on IGROV1 ovarian, in the test on 786-0 renal, with SNB-19 CNS and with SF-295 CNS was above 100 µM in each case. For the same compound, the figures for the TGI in the test with A549 NSCLC, with NCI-H226 lung and in the test with ACHN renal were above 100 µM, above 19.7 µM and above 100 µM, respectively.

With `Cc1c(C)c2c(c(C)c1OCC(=O)O)CC[C@@](C)(CCC[C@@H](C)CCC[C@@H](C)CCCC(C)C)O2`, the GI50 in the test on EKVX NSCLC is 64.2 µM; with SN12C renal it was 66.7 µM; in the test on IGROV1 ovarian it was 91.7 µM; in the test on 786-0 renal, 93.3 µM; in the test with SNB-19 CNS, 95.8 µM; in the test on SF-295 CNS it was 60.1 µM. The GI50 was 24.4 µM with A549 NSCLC, 89 µM with NCI-H226 lung, 53.1 µM in the test on ACHN renal and 75.7 µM with NCI-H23 lung. Besides, the TGI in the test on EKVX NSCLC came out at 148 µM; in the test with SN12C renal, 176 µM; in the test with IGROV1 ovarian, 187 µM; in the test on 786-0 renal, 185 µM; in the test on SNB-19 CNS, 196 µM; in the test on SF-295 CNS it was 146 µM. Further, the TGI came out at 107 µM in the test on A549 NSCLC, 244 µM in the test on NCI-H226 lung, 112 µM in the test on ACHN renal and 200 µM in the test with NCI-H23 lung.
